Measured values as given in patent publication US12240822B2, “Naphthalene isoxazoline compound and application thereof” (SHANDONG C[…] SEA PHARMACEUTICAL TECHNOLOGY CO., LTD., priority 2023, dated 2025).
≈ marks a conversion by molar mass, not a printed value. Where “and” joins values, the source holds several entries; their conditions need not be identical. Equal entries are not always repeated.

How the values were obtained:
Myzus persicae Sulzer = assay: Indoor toxicity test on Myzus persicae Sulzer wingless aphids, insect soaking and leaf soaking method; assay type: in vivo; conditions: for Death rate: 48 h
Experimental: The aphid species was Myzus persicae Sulzer, which was a sensitive population raised indoors in the bioassay room of the Plant Protection Institute of Shandong Academy of Agricultural Sciences. The temperature range was 24-26° C., the humidity range was 60%-80%, and the illumination was L:D=16 h:8 h. Aphids used for tests were wingless aphids.
Test medicaments were prepared into a mother solution with methanol and then diluted with a Tween-80 aqueous solution having a mass concentration of 0.1% in equal proportions. According to effective components, the B4 was set to 6 concentration gradients of 0.5 mg/L, 1 mg/L, 2 mg/L, 4 mg/L, 8 mg/L, and 16 mg/L; the C4 was set to 6 concentration gradients of 0.5 mg/L, 1 mg/L, 2 mg/L, 4 mg/L, 8 mg/L, and 16 mg/L; and the A4 was set to 6 concentration gradients of 0.05 mg/L, 0.1 mg/L, 0.2 mg/L, 0.4 mg/L, 0.8 mg/L, and 1.6 mg/L. A methanol aqueous solution having a volume concentration of 4% was taken as a blank control.
Insects for tests were processed according to an insect soaking method (NY/T 1154.6-2006) and a leaf soaking method (NY/T 1154.14-2008). Each medicament for tests was diluted to the set 6 concentrations for later use. Absorbent paper was placed at the bottom of a disposable plastic cup, a layer of filter paper was laid on the absorbent paper, and 2 mL of distilled water was added to keep moisture for later use. Leaves with aphids were cut into small leaves, each leaf has about 20 wingless aphids, and the leaves with aphids were gently soaked in the liquid medicine with tweezers and then taken out after 10 s, and placed on the absorbent paper and air-dried. The air-dried leaves were placed in the prepared plastic cups which were then covered, and one leaf was placed in each plastic cup. One repetition was performed for each plastic cup, and 4 repetitions were performed for each concentration. The plastic cups were placed in an illumination incubator, and the number of live aphids and the number of dead aphids were recorded 48 h later.
DPS software was used for processing, and the median lethal concentration LC50 and 95% confidence limit of 3 test medicaments on aphids at 48 h were determined.
The logarithm of the medicament concentration (mg/L) was taken as an independent variable X, the probability value of a corrected death rate was taken as a dependent variable Y, and the LC50 value, 95% confidence limit and R2 of a toxicity regression line were computed by DPS software.

Thrips palmi Karny = assay: Indoor toxicity test on Thrips palmi Karny adults, liquid tube drug film method with leaf soaking; assay type: in vivo; conditions: for Death rate: 48 h
Experimental: Through indoor tests, a liquid tube drug film method improved by a filter paper drug film method was used for evaluating the indoor toxicity effects of three raw drugs on Thrips palmi Karny.
Thrips palmi Karny was raised indoors in the insectary of the Plant Protection Institute of Shandong Academy of Agricultural Sciences.
Culture was performed in an illumination incubator, and raising and observation were performed under the conditions that the temperature was 25.0±2.0° C., the relative humidity was 75±5% and the photoperiod (L/D) was 14 h/10 h.
The insect for tests is an adult of Thrips palmi Karny.
Three test medicaments were prepared into a mother solution with methanol and then diluted with a Tween-80 aqueous solution having a mass concentration of 0.1% in equal proportions, and the concentration was set in equal proportions. • B4 concentration: 0.5, 1, 2, 4, 8, 16 mg/L; • C4 concentration: 25, 12.5, 6.25, 3.125, 1.5625, 0.7813 mg/L; • A4 concentration: 0.1, 0.05, 0.025, 0.0125, 0.00625, 0.003125 mg/L. 3.2.2 Test Repetition
Each processing was repeated 4 times, and 30 insects for tests were used for each repetition.
According to NY/T 1154.8-2007, the liquid tube drug film method improved by the filter paper drug film method was used for processing insects for tests. Medicaments for tests were diluted into 6 concentrations, a 1.5 mL centrifugal tube was filled with each concentration of liquid medicine respectively and allowed to stand for 4 h, then the liquid medicine was poured out, and the centrifugal tube was placed on a test table and air-dried for later use. A fine needle tip was heated with an alcohol lamp, and a small hole with a diameter of about 2-3 mm was formed at the bottom of the air-dried centrifugal tube by heating. One repetition was performed for each tube, and 4 repetitions were performed for each concentration. Leaf soaking: A hole puncher was used for punching fresh cabbage leaves into circular leaves with a diameter of 0.5 cm, and the circular leaves were respectively soaked in each concentration of liquid medicine for 10 s with leaf soaking in clear water as a control. The processed leaves were placed on absorbent paper and air-dried and then clamped with small tweezers into the centrifugal tubes with corresponding liquid medicine concentrations, and one leaf was placed flatly in each tube. Indoor insects for tests: An interface of an insect sucker was sealed with gauze and sleeves an orifice of the processed centrifugal tube, and the hole formed by heating at the bottom of the centrifugal tube was aligned with the insects for tests to enable the insects for tests to be sucked into the centrifugal tube along the airflow. The insects for tests were processed after control, about 30 insects for tests were sucked for each repetition, then a tube cover was covered, and the hole formed by heating was sealed with a sealing film. After related information was marked, the number of live insects and the number of dead insects were recorded 48 h later.
Test results were investigated 48 h after drug post-processing.
The logarithm of the medicament concentration (mg/L) was taken as an independent variable X, the probability value of a corrected death rate was taken as a dependent variable Y, and the LC50 value, LC90 value, 95% confidence limit and R2 of a toxicity regression line were computed by DPS software.

[1] = Thrips palmi Karny adults, 48 h after administration

## CO/N=C/NC(=O)c1ccc(C2=NOC(c3cc(Cl)cc(Cl)c3)(C(F)(F)F)C2)cc1C (stereo not shown) [C4, fluxametamide]
Myzus persicae Sulzer; 0.5 mg/L, Total
  Death rate: 21.47%
Myzus persicae Sulzer; 0.5 mg/L, single repetitions 1-4
  Death rate: 25.00% and 25.71% and 16.67% and 18.52%
Myzus persicae Sulzer; 1 mg/L, Total
  Death rate: 46.05%
Myzus persicae Sulzer; 1 mg/L, single repetitions 1-4
  Death rate: 47.83% and 36.36% and 40.00% and 60.00%
Myzus persicae Sulzer; 2 mg/L, Total
  Death rate: 77.48%
Myzus persicae Sulzer; 2 mg/L, single repetitions 1-4
  Death rate: 85.71% and 77.78% and 75.00% and 71.43%
Myzus persicae Sulzer; 4 mg/L, Total
  Death rate: 85.54%
Myzus persicae Sulzer; 4 mg/L, single repetitions 1-4
  Death rate: 89.29% and 88.00% and 87.10% and 77.78%
Myzus persicae Sulzer; 8 mg/L, Total
  Death rate: 96.06%
Myzus persicae Sulzer; 8 mg/L, single repetitions 1-4
  Death rate: 91.67% and 92.59% and 100.00%
Myzus persicae Sulzer; 16 mg/L, Total
  Death rate: 97.20%
Myzus persicae Sulzer; 16 mg/L, single repetitions 1-4
  Death rate: 93.33% and 100.00% and 95.45%
Myzus persicae Sulzer; Myzus persicae Sulzer wingless aphids, 48 h after administration
  LC50: 1.1 µg/mL (≈ 2.32 µM)
Thrips palmi Karny; 0.7813 mg/L, Total/Average
  Death rate: 14.47%
Thrips palmi Karny; 1.5625 mg/L, Total/Average
  Death rate: 25.14%
Thrips palmi Karny; 3.125 mg/L, Total/Average
  Death rate: 66.15%
Thrips palmi Karny; 3.125 mg/L, single repetitions 1-4
  Death rate: 70.59% and 63.16% and 70.00% and 60.87%
Thrips palmi Karny; 6.25 mg/L, Total/Average
  Death rate: 82.01%
Thrips palmi Karny; 6.25 mg/L, single repetitions 1-4
  Death rate: 85.71% and 88.00% and 75.00% and 79.31%
Thrips palmi Karny; 12.5 mg/L, Total/Average
  Death rate: 87.89%
Thrips palmi Karny; 12.5 mg/L, single repetitions 1-4
  Death rate: 88.89% and 85.19% and 87.50% and 90.00%
Thrips palmi Karny; 25 mg/L, Total/Average
  Death rate: 96.78%
Thrips palmi Karny; 25 mg/L, single repetitions 1-4
  Death rate: 95.83% and 95.65% and 100.00%
Thrips palmi Karny; [1]
  LC50: 2.69 µg/mL (≈ 5.67 µM)
  LC90: 16.1203 µg/mL (≈ 34 µM)
